This is an account of results in patent US20030224978A1, “Compounds and methods for modulating apoptosis” (McGill University, priority 1996, published 2003).

SMILES strings stand for the structures. Entries after “also recorded” stand apart in the source; their conditions may differ.

The target of one assay is T1, N-cadherin (Gallus gallus, UniProt P10288).
T1 construct: expressed in transfected cells; host or cells: 3T3 fibroblasts
T1 sequence (P10288 165-912): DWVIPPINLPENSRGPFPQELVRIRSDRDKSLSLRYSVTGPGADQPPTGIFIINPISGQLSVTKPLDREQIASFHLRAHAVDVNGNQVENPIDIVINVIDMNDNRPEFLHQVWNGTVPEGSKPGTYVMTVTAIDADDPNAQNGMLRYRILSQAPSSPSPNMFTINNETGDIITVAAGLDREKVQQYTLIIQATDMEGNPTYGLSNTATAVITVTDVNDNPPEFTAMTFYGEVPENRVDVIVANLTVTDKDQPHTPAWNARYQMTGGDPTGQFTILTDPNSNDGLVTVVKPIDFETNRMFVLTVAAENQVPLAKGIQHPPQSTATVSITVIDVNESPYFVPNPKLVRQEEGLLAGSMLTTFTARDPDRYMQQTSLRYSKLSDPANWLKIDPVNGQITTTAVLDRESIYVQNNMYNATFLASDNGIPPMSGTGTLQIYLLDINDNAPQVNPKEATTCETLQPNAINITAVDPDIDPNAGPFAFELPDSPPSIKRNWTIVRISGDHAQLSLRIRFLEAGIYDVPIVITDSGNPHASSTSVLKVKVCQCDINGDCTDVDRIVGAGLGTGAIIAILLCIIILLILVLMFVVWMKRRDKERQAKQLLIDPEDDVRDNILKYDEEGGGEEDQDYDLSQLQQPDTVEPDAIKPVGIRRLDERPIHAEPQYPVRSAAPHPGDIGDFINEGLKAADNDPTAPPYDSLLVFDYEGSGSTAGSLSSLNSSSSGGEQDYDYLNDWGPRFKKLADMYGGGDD
Nature of the assay: Neurite outgrowth of mouse cerebellar neurons on 3T3 cells expressing N-cadherin (Example 2). Format: cell-based. An excerpt:
Within a representative neurite outgrowth assay, neurons may be cultured on a monolayer of cells (e.g., 3T3) that express N-cadherin. […] For example, neurons may be cultured on monolayers of 3T3 cells transfected with cDNA encoding N-cadherin essentially as described by Doherty and Walsh, Curr. Op. Neurobiol. 4:49-55, 1994; Williams et al., Neuron 13:583-594, 1994; Hall et al., Cell Adhesion and Commun. 3:441-450, 1996; Doherty and Walsh, Mol. Cell. Neurosci. 8:99-111, 1994; and Safell et al., Neuron 18:231-242, 1997. Briefly, monolayers of control 3T3 fibroblasts and 3T3 fibroblasts that express N-cadherin may be established by overnight culture of 80,000 cells in individual wells of an 8-chamber well tissue culture slide. 3000 cerebellar neurons isolated from post-natal day 3 mouse brains may be cultured for 18 hours on the various monolayers in control media (SATO/2%FCS), or media supplemented with various concentrations of the modulating agent or control peptide. The cultures may then be fixed and stained for GAP43 which specifically binds to the neurons and their neurites. The length of the longest neurite on each GAP43 positive neuron may be measured by computer assisted morphometry.
A modulating agent that modulates N-cadherin-mediated cell adhesion may inhibit or enhance such neurite outgrowth. Under the conditions described above, the presence of 500 μg/mL of a modulating agent that disrupts neural cell adhesion should result in a decrease in the mean neurite length by at least 50%, relative to the length in the absence of modulating agent or in the presence of a negative control peptide. Alternatively, the presence of 500 μg/mL of a modulating agent that enhances neural cell adhesion should result in an increase in the mean neurite length by at least 50%.
Neurons were cultured on monolayers of 3T3 cells transfected with cDNA encoding N-cadherin essentially as described by Doherty and Walsh, Curr. Op. Neurobiol. […] The length of the longest neurite on each GAP43 positive neuron was then measured by computer assisted morphometry.

The test system of a further assay is Melanoma ME 115 cells. Nature of the assay: Disruption of melanoma cell adhesion, pan-cadherin immunostaining. Format: cell-based, human. To be noted: 500 μg/mL, 48 hours. The procedure: Melanoma ME 115 cells (kindly provided by Meenhard Herlyn, Wistar Institute, Philadelphia, Pa.) were plated on glass coverslips and cultured for 24 hours in 50% keratinocyte growth medium (Clonetics, San Diego, Calif.) and 50% L15. Fresh medium containing the cyclic peptides (final concentration 500 μg/mL media) N-Ac-CHAVC-NH2 (SEQ ID NO:10) or N-Ac-CHGVC-NH2 (SEQ ID NO:20) was then added. Following 24 hours of culture in the presence of the peptides, the medium was removed and fresh medium containing the peptides was added. The cells were fixed 24 hours later with cold methanol and stored in phosphate buffered saline (PBS).
Coverslips were blocked for 1 hour in 3% ovalbumin/PBS and incubated for a further 1 hour in the presence of rabbit pan-cadherin antibody (Sigma Chemical Co., St. Louis, Mo.) diluted 1:500. Primary and secondary antibodies were diluted in PBS containing 6% normal goat serum. Following incubation in the primary antibody, coverslips were washed 3 times for 5 minutes each in PBS and incubated for 1 hour in goat anti-rabbit immunoglobulin G conjugated to fluorescein (Kiekegard and Perry, South San Francisco, Calif.) diluted 1:100. Following a further wash in PBS (3×5 minutes) coverslips were mounted in Vectashield (Vector Labs, Burlingame, Calif.) and viewed with a Zeiss infinity corrected microscope.

Regarding `CC(=O)N[C@H]1CSSC[C@@H](C(N)=O)NC(=O)[C@H](C(C)C)NC(=O)[C@H](C)NC(=O)[C@H](Cc2c[nH]cn2)NC1=O` [N-Ac-CHAVC-NH2, N-Ac-Cys-His-Ala-Val-Cys-NH2], at N-cadherin (50 μg/mL, dose-response study), the “effect on neurite outgrowth on 3T3 cells expressing N-cadherin” value (from here on “effect on neurite outgrowth”) is on record as “significantly inhibited neurite outgrowth”. In addition, the “effect on neurite outgrowth” value on N-cadherin (500 μg/mL, 18 hours) is “completely inhibited neurite outgrowth”. Further, in the assay with Melanoma ME 115 cells, the “cadherin staining in melanoma ME115 cells” value is “absence of cell membrane staining and the appearance of bright intracellular vesicular staining; also recorded: cadherin is localized in intracellular vesicles”; the “effect on melanoma cell adhesion” value is “disrupts melanoma cell adhesion”.

Take `CC(=O)N[C@H]1CSSC[C@@H](C(N)=O)NC(=O)[C@H](C(C)C)NC(=O)CNC(=O)[C@H](Cc2c[nH]cn2)NC1=O` [N-Ac-CHGVC-NH2, reference compound]: the “effect on neurite outgrowth” value at N-cadherin (500 μg/mL, 18 hours) is listed as “had no effect”. The “cadherin staining in melanoma ME115 cells” value in the assay with Melanoma ME 115 cells is “displayed cadherin staining all over the cell membrane”.
